Laboratory results reported in patent US20100022559A1, “BISOXIMES AS FUNGICIDES” (BAYER CROPSCIENCE AG, priority 2006, published 2010).

Test system: green peach aphid (Myzus persicae)
Assay: Myzus test (spray treatment)
Format: in vivo
Details: active compound concentration 500 ppm, after 5 days, chinese cabbage leaf discs
Procedure: [table] To produce a suitable preparation of active compound, 1 part by weight of active compound is mixed with the stated amounts of solvents and emulsifier, and the concentrate is diluted with emulsifier-containing water to the desired concentration. Discs of chinese cabbage (Brassica pekinensis) which are infested by all stages of the green peach aphid (Myzus persicae) are sprayed with an active compound preparation of the desired concentration. After the desired period of time, the effect in % is determined. 100% means that all aphids have been killed; 0% means that none of the aphids have been killed.

Row | SMILES | efficacy
1 | CC(=NOCC1(CON=C(C)c2cccc(C)n2)CC(C(C)(C)C)=NO1)c1cccc(C)n1 (centres unmarked) [Compound 600] | 100%

Test system: not listed separately
Assay: logP determination by HPLC on a reversed-phase column (C 18), EEC Directive 79/831 Annex V.A8
Format: physicochemical
Details: method marked [a] in Table 1
Procedure: The stated logP values were determined in accordance with EEC Directive 79/831 Annex V.A8 by HPLC (high performance liquid chromatography) on a reversed-phase column (C 18). Temperature: 43° C.

Row | logP | SMILES
2 | 4.09^[a] | Cc1cccc(C(=NOCC(C)(C)CON=C(c2ccccc2)c2cccc(C)n2)c2ccccc2)n1 (mixture of isomers) [compound 660]

Same assay, conditions: method marked [b] in Table 1

Row | logP | SMILES
3 | 2.13^[b] (isomer A) | C=C(CON=Cc1cccc(C)n1)CON=Cc1cccc(C)n1 (single isomer, unassigned) [compound 664]
4 | 3.72^[b] | Cc1cc(C)nc(/C(N)=N/OCc2ccccc2CO/N=C(\N)c2cc(C)cc(C)n2)c1 [compound 724]
5 | 2.42^[b] | N/C(=N\OC/C=C/CO/N=C(\N)c1ncc(F)cc1F)c1ncc(F)cc1F [compound 723]
6 | 3.09^[b] | Cc1nc(/C(N)=N/OCc2ccc(CO/N=C(\N)c3nc(C)c4c(n3)CCCC4)cc2)nc2c1CCCC2 [compound 717]
7 | 3.00^b] (Isomer A) | C=C(CON=C(C)c1cccc(C)n1)CON=C(C)c1sc(C)nc1C (single isomer, unassigned) [compound 544]
8 | 2.20^[b] | CC1=NOC(CON=C(C)c2cccc(C)n2)(CON=C(C)c2cccc(C)n2)C1 (centres unmarked) [compound 596]
9 | 2.13^[b] | Cc1cc(C)nc(/C(N)=N/OCc2cccc(CO/N=C(\N)c3nc(C)cc(C)n3)c2)n1 [compound 701]

The remaining lines, values behind:

Row | SMILES | logP
10 | CC(=NOCC1(CON=C(C)c2cccc(C)n2)CC(C(C)(C)C)=NO1)c1cccc(C)n1 (centres unmarked) [Compound 600] | 3.85^[b]
11 | CC(=NOC(=O)N(C)C(=O)ON=C(C)c1ccc(C)c(C)n1)c1ccc(C)c(C)n1 [compound 674] | 2.79^[b]
12 | CC(=NOC(C)C(C)C(C)ON=C(C)c1cccc(C)n1)c1cccc(C)n1 (mixture of isomers) [Compound 743] | 4.90^[b]

Same assay, conditions: method marker [a] (footnote not shown); isomer A / isomer B / isomer mixture as noted in the cell

Row | logP | SMILES
13 | 7.36^[a] | CC(=NOCC(C)CON=C(C)c1cccc(C(C)C)n1)c1cccc(C(C)C)n1 (centres unmarked) [Compound 229]
14 | 5.43^[a] | CCc1cccc(C(C)=NOCCCON=C(C)c2cccc(CC)n2)n1 [Compound 180]
15 | 2.23^[a] | CC(=NOCCCON=C(C)c1ccc(C)c(C)n1)c1ccc(C)c(C)n1 [Compound 72]
16 | 2.65^[a) | CC(=NOCC(O)(CON=C(C)c1cccc(C)n1)CON=C(C)c1cccc(C)n1)c1cccc(C)n1 (centres unmarked) [compound 221]
17 | 7.36^[a] | CC(=NOCC(C)CON=C(C)c1cccc(CC(C)C)n1)c1cccc(CC(C)C)n1 (centres unmarked) [compound 172]
18 | 7.36^[a] | CCCc1cccc(C(C)=NOCC(C)CON=C(C)c2cccc(CCC)n2)n1 (centres unmarked) [Compound 175]

Same assay, conditions: method marker [b]; isomer A / isomer B / isomer mixture as noted in the cell

Row | logP | SMILES
19 | 1.32^[b] | CC(=NOCCON=C(C)c1cccnc1)c1cccnc1 [Compound 32]
20 | 4.40^[b] (isomer A) | C=C(CON=C(C)c1cccc(C)n1)CON=C(C)c1ncccc1Cl (single isomer, unassigned) [compound 140]
21 | 7.36^[b] | CC(=NOCCCCCCCCCCON=C(C)c1cccc(C)n1)c1cccc(C)n1 [compound 74]
22 | 5.03^[b] | C=C(CON=C(C)c1cccn1C)CON=C(C)c1cccn1C [compound 21]
23 | 1.91^[b] | CC(=NOCC(CON=C(C)c1cccc(C)n1)=NO)c1cccc(C)n1 [compound 82]
24 | 3.33^b] | C=C(CON=C(C)c1ccc(C)cn1)CON=C(C)c1cccc(C)n1 [compound 209]
25 | 6.30^[b] | C=C(CON=C(C)c1cc(Cl)cc(Cl)c1)CON=C(C)c1cccc(C)n1 [compound 24]
26 | 5.25^[b] | C=C(CON=C(C)c1nc(C)c(C)s1)CON=C(C)c1nc(C)c(C)s1 (single isomer, unassigned) [compound 68]
27 | 4.35^[b] | CC(=NOCCON=C(C)c1nc(C)c(C)s1)c1nc(C)c(C)s1 [compound 50]
28 | 3.94^[b] | C=C(CON=C(C)c1ccc(Cl)nc1)CON=C(C)c1cccc(C)n1 [compound 201]
29 | 2.39^[b] | CC(=NOCON=C(C)c1cccc(C)n1)c1cccc(C)n1 [compound 7]
30 | 5.39^[b] | CC(=NOCCON=C(C)c1ncc(Cl)cc1Cl)c1ncc(Cl)cc1Cl [compound 55]
31 | 2.29^[b] | Cc1nc(/C(N)=N/OCO/N=C(\N)c2nc(C)c3c(n2)CCCC3)nc2c1CCCC2 [compound 39]
32 | 5.89^[b] | C=C(CON=C(C)c1cccc(OC)n1)CON=C(C)c1cccc(OC)n1 [compound 145]
33 | 0.66^[b] | CC(=NOCCON=C(C)c1ccncc1)c1ccncc1 [compound 28]

Same assay, conditions: reversed-phase HPLC column (C 18); HCO2H; HPLC reversed-phase column (C 18), 43° C.; read-out: logP (HCO2H)

Row | chromatographic logP | SMILES
34 | 2.61 | C/C(=N\OCC1(CO/N=C(\C)c2ccc(C)c(C)n2)CC1)c1cc(C)cc(C)n1 [(1E)-1-(4,6-dimethylpyridin-2-yl)ethanone O-({1-[({[(1E)-1-(5,6-dimethylpyridin-2-yl)ethylidene]amino}oxy)methyl]cyclopropyl}methyl)oxime]

Same assay, conditions: value marked [a]

Row | logP | SMILES
35 | 4.20^[a] | Cc1cccc(C(C#N)=NOCC(C)CON=C(C#N)c2cccc(C)n2)n1 (centres unmarked) [compound 827]
36 | 4.57^[a] | CC=Cc1cc(C)nc(C(C)=NOCC(C)CON=C(C)c2cc(C=CC)cc(C)n2)c1 (centres unmarked) [compound 866]

More lines, now with the values behind:

Row | SMILES | logP
37 | CC(=NOCC(C)(C)CON=C(C)c1cc(C2CC2)cc(C)n1)c1cc(C2CC2)cc(C)n1 [Compound 817] | 3.27^[a]
38 | CC(=NOCC(C)(C)CON=C(C)c1ccc(C)c(C)n1)c1ccc(C)c(C)n1 [Compound 278] | 3.81^[a]
39 | CC[Si](CC)(CON=C(C)c1cccc(C)n1)CON=C(C)c1cccc(C)n1 [Compound 782] | 6.65^[a]
40 | CCOC(=O)c1cccc(C(C)=NOCCCON=C(C)c2cccc(C(=O)OCC)n2)n1 [compound 257] | 4.06^[a]
41 | C=C(CON=C(c1cccc(C)n1)C1CC1)CON=C(c1cccc(C)n1)C1CC1 (single isomer, unassigned) [Compound 311] | 3.29^[a] (isomer B)

Same assay, conditions: value marked [b]

Row | logP | SMILES
42 | 5.78^[b] | CC(=NOCC(C)CON=C(C)c1cccc(C)n1)c1ccc(Cl)cc1 (centres unmarked) [compound 496]
43 | 7.12^[b] | CC(=NOCCCCCCON=C(C)c1cccc(C(C)C)n1)c1cccc(C)n1 [compound 465]
44 | 5.31^[b] | COc1cccc(C(C)=NOCC(C)(C)CON=C(C)c2cccc(C)n2)c1 [compound 484]
45 | 5.36^[b] | CC(=NOCC(C)(C)CON=C(C)c1nc(C)c(C)s1)c1cccc(C)n1 [compound 411]
46 | 4.22^[b] | CC(=NOc1nc(Cl)nc(ON=C(C)c2cccc(C)n2)c1Cl)c1cccc(C)n1 (single isomer, unassigned) [compound 780]
47 | 1.88^[b] | CC(=NOCCCCON=C(C)c1cccc(C)n1)c1ccncc1 [compound 440]
48 | 6.79^[b] | CCCc1cccc(C(C)=NOCCCCCCON=C(C)c2cccc(C)n2)n1 [compound 463]
49 | 5.59^[b] | COc1cccc(C(C)=NOCCCCCCON=C(C)c2cccc(C)n2)c1 [compound 457]
50 | 3.24^[b] | CC(=NOCC(C)CON=C(C)c1cnnc(C)n1)c1cccc(C)n1 (centres unmarked) [compound 426]
51 | 2.70^[b] (isomer A) | Cc1cc(C)nc(C(N)=NOC/C=C/CON=C(N)c2cc(C)cc(C)n2)c1 (single isomer, unassigned) [compound 771]
52 | 3.56^[b] | CC(=NOCC(C)CON=C(C)c1ccnc(C)n1)c1cccc(C)n1 (centres unmarked) [compound 430]
53 | 4.61^[b] | CC(=NOCC(C)(C)CON=C(c1ccccc1)c1cccc(C)n1)c1cccc(C)n1 (single isomer, unassigned) [compound 879]
54 | 4.57^[b] | CC=Cc1cc(C)nc(C(C)=NOCC(C)CON=C(C)c2cc(C=CC)cc(C)n2)c1 (centres unmarked) [compound 866]
55 | 2.98^[b] (isomer )A | CCC(=NOCCCCON=C(C)c1cccc(C)n1)c1ncccc1C (single isomer, unassigned) [compound 529]
56 | 3.89^[b] | CC(=NOCC(C)(C)CON=C(C)c1ncccc1C)c1cccc(C)n1 [compound 490]
57 | 3.31^[b] | CC(=NOC/C=C\CON=C(C)c1cccc(C)n1)c1cccc(C)n1 [compound 778]
58 | 3.04^[b] | CC(=NOCC1(CON=C(C)c2nc(C)ccc2C)CCCC1)c1nc(C)ccc1C (single isomer, unassigned) [compound 762]

Further lines, the compound ahead of its results:

Row | SMILES | logP
59 | CC[Si](CC)(CON=C(C)c1cccc(C)n1)CON=C(C)c1cccc(C)n1 [Compound 782] | 6.65^[b]
60 | CC(=NOCCCCON=C(c1ccccc1)c1ncccc1C)c1cccc(C)n1 [compound 325] | 3.89^[b]
61 | CC(=NOCCCCCCON=C(C)c1nccc(C)n1)c1cccc(C)n1 [Compound 509] | 3.39^[b]
62 | CCC(C)(CON=C(C)c1cccc(C)n1)CON=C(C)c1cccc(C)n1 (centres unmarked) [Compound 788] | 5.73^[b]
63 | CC(=NOCCCCCCON=C(C)c1cccc(C)n1)c1ccccc1 [compound 397] | 5.78^[b]
64 | C=C(CON=C(C)c1cccc(C)n1)CON=C(C)c1cc(OC)cc(C)n1 (single isomer, unassigned) [Compound 476] | 3.33^[b] (isomer B)
65 | CC(=NOCC1(CON=C(C)c2ccc(C)c(C)n2)CCCCC1)c1ccc(C)c(C)n1 [Compound 320] | 5.34^[b]
66 | CC(=NOCC1(CON=C(C)c2ccc(C)c(C)n2)CCC1)c1ccc(C)c(C)n1 [Compound 319] | 4.07^b]
67 | CCC(=NOCCCCCCON=C(C)c1cccc(C)n1)c1ncccc1C [compound 343] | 4.87^[b] (isomer B)
68 | CC(=NOCC1OC1CON=C(C)c1cccc(C)n1)c1cccc(C)n1 (racemic) [compound 286] | 2.08^[b]
69 | C=C(CON=C(C)c1nc(C)ccc1OC)CON=C(C)c1nc(C)ccc1OC [Compound 283] | 2.05^[b]

Same assay, conditions: value marked [c]

Row | logP | SMILES
70 | 4.88^[c] | CC(=NOc1nc(Cl)nc(ON=C(C)c2cccc(C)n2)c1Cl)c1cccc(C)n1 (single isomer, unassigned) [compound 780]
71 | 4.52^[c] | CC(=NOCC(C)(C)CON=C(c1ccccc1)c1cccc(C)n1)c1cccc(C)n1 (single isomer, unassigned) [compound 879]
72 | 5.14^[c] | CC(=NOCC1(CON=C(C)c2nc(C)ccc2C)CCCC1)c1nc(C)ccc1C (single isomer, unassigned) [compound 762]

Further lines, the compound ahead of its results:

Row | SMILES | logP
73 | CC(=NOCC(C)(C)CON=C(C)c1cc(C2CC2)cc(C)n1)c1cc(C2CC2)cc(C)n1 [Compound 817] | 7.14^[c]
74 | CC[Si](CC)(CON=C(C)c1cccc(C)n1)CON=C(C)c1cccc(C)n1 [Compound 782] | 7.01^[c]
75 | CCC(C)(CON=C(C)c1cccc(C)n1)CON=C(C)c1cccc(C)n1 (centres unmarked) [Compound 788] | 6.47^[c]
76 | CC(=NOCC1(CON=C(C)c2ccc(C)c(C)n2)CCCCC1)c1ccc(C)c(C)n1 [Compound 320] | 7.36^[c]
77 | CC(=NOCC1(CON=C(C)c2ccc(C)c(C)n2)CCC1)c1ccc(C)c(C)n1 [Compound 319] | 7.05^[c]
